PubChem BioAssay AID330 (DTP/NCI, 2004)
Several values for one entry are separate records, joined by “and”; a condition that tells them apart may be missing. Equal entries are not always repeated. Inconclusive results and toxic doses are left out.

Tested on: P388 leukemia ip, CD2F1 mice, survival T/C
Test: NCI In Vivo Anticancer Drug Screen. Data for tumor model P388 Leukemia (intraperitoneal) in CD2F1 (CDF1) mice
Conditions: endpoint: median survival time, higher = longer survival
Outline: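 Mice carrying the transplanted tumor received test compound or vehicle. Survival was recorded in each group, and the value is the treated-group measurement divided by that of the vehicle-treated control group.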

[1] = dose: 12.5 mg/kg/injection, schedule: Q01DX009 (ip), vehicle: saline with Tween-80
[2] = dose: 25.0 mg/kg/injection, schedule: Q01DX009 (ip), vehicle: saline with Tween-80
[3] = dose: 100.0 mg/kg/injection, schedule: Q01DX009 (ip), vehicle: saline with Tween-80
[4] = dose: 50.0 mg/kg/injection, schedule: Q01DX009 (ip), vehicle: saline
[5] = dose: 100.0 mg/kg/injection, schedule: Q01DX009 (ip), vehicle: saline

CCNCc1c(C)[nH]c2ccccc2c1=O
T/C (dose: 3.12 mg/kg/injection, schedule: Q01DX009 (ip), vehicle: saline with Tween-80): 100 % of control | T/C (dose: 6.25 mg/kg/injection, schedule: Q01DX009 (ip), vehicle: saline with Tween-80): 101 % of control | T/C [1]: 102 % of control | T/C [2]: 105 % of control | T/C [3]: 91 % of control

CC(O)C(NC(=O)OC(C)(C)C)C(=O)O (configuration not stated)
T/C (dose: 50.0 mg/kg/injection, schedule: Q01DX005 (ip), vehicle: saline): 103 % of control | T/C (dose: 100.0 mg/kg/injection, schedule: Q01DX005 (ip), vehicle: saline): 104 % of control | T/C (dose: 200.0 mg/kg/injection, schedule: Q01DX005 (ip), vehicle: saline): 102 % of control

CCOC1(OCC)Oc2c(Cl)c(Cl)c(Cl)c(Cl)c2OC1(OCC)OCC
T/C (dose: 60.0 mg/kg/injection, schedule: Q01DX005 (ip), vehicle: Klucel (hydroxypropylcellulose) (HPC)): 99 % of control | T/C (dose: 120.0 mg/kg/injection, schedule: Q01DX005 (ip), vehicle: Klucel (hydroxypropylcellulose) (HPC)): 100 % of control | T/C (dose: 240.0 mg/kg/injection, schedule: Q01DX005 (ip), vehicle: Klucel (hydroxypropylcellulose) (HPC)): 104 % of control

CCOC1OCN(C(C)C)CC1(C)C (configuration not stated)
T/C [2]: 98 % of control

Nc1nc2c(c(=O)[nH]1)CNC2=O
T/C (dose: 25.0 mg/kg/injection, schedule: Q01DX009 (ip), vehicle: saline): 112 % of control | T/C [4]: 116 % of control | T/C [5]: 113 % of control

CCCCOc1cccc2c(NCCCNCCCNc3c4ccccc4nc4c(OCCCC)cccc34)c3ccccc3nc12
T/C (dose: 0.63 mg/kg/injection, schedule: Q01DX009 (ip), vehicle: other): 114 % of control | T/C (dose: 1.25 mg/kg/injection, schedule: Q01DX009 (ip), vehicle: other): 121 % of control | T/C (dose: 2.5 mg/kg/injection, schedule: Q01DX009 (ip), vehicle: other): 120 % of control and 124 % of control | T/C (dose: 5.0 mg/kg/injection, schedule: Q01DX009 (ip), vehicle: other): 100 % of control

CN1CC2CCCCN2CC(Cc2ccccc2)([N+](=O)[O-])C1 (configuration not stated)
T/C (dose: 100.0 mg/kg/injection, schedule: Q04DX002 (ip), vehicle: saline): 109 % of control | T/C (dose: 200.0 mg/kg/injection, schedule: Q04DX002 (ip), vehicle: saline): 109 % of control

O=S(=O)(Nc1ccc2ccc3cccc4ccc1c2c34)c1ccccc1
T/C (dose: 50.0 mg/kg/injection, schedule: Q01DX009 (ip), vehicle: Klucel (hydroxypropylcellulose) (HPC)): 98 % of control | T/C (dose: 100.0 mg/kg/injection, schedule: Q01DX009 (ip), vehicle: Klucel (hydroxypropylcellulose) (HPC)): 100 % of control | T/C (dose: 200.0 mg/kg/injection, schedule: Q01DX009 (ip), vehicle: Klucel (hydroxypropylcellulose) (HPC)): 100 % of control

O=C(c1ccccc1)C(C(c1ccccc1)N1CCOCC1)N1CCOCC1 (configuration not stated)
T/C [3]: 94 % of control | T/C (dose: 200.0 mg/kg/injection, schedule: Q01DX009 (ip), vehicle: saline with Tween-80): 94 % of control | T/C (dose: 400.0 mg/kg/injection, schedule: Q01DX009 (ip), vehicle: saline with Tween-80): 94 % of control

CC(C)(C)C1C/C(=C2\COC(=O)C2=O)NN1c1ccccc1 (configuration not stated)
T/C [4]: 92 % of control | T/C [5]: 91 % of control | T/C (dose: 200.0 mg/kg/injection, schedule: Q01DX009 (ip), vehicle: saline): 91 % of control

COC(=O)/C=C1\C=CC=CC12C(C(=O)OC)c1ccccc1C(C(=O)OC)C2C(=O)OC (configuration not stated)
T/C [1]: 100 % of control | T/C [2]: 99 % of control | T/C (dose: 50.0 mg/kg/injection, schedule: Q01DX009 (ip), vehicle: saline with Tween-80): 100 % of control

CCOC(=Nc1ccc(OCC)cc1)SC(c1ccccc1)(c1ccccc1)c1ccccc1
T/C (dose: 50.0 mg/kg/injection, schedule: Q01DX005 (ip), vehicle: saline with Tween-80): 104 % of control | T/C (dose: 100.0 mg/kg/injection, schedule: Q01DX005 (ip), vehicle: saline with Tween-80): 98 % of control | T/C (dose: 200.0 mg/kg/injection, schedule: Q01DX005 (ip), vehicle: saline with Tween-80): 91 % of control

O=NNc1ccccn1
T/C (dose: 0.78 mg/kg/injection, schedule: Q01DX009 (ip), vehicle: saline): 106 % of control | T/C (dose: 1.5 mg/kg/injection, schedule: Q01DX009 (ip), vehicle: saline): 100 % of control | T/C (dose: 1.5 mg/kg/injection, schedule: Q01DX009 (ip), vehicle: water): 103 % of control | T/C (dose: 1.56 mg/kg/injection, schedule: Q01DX005 (ip), vehicle: water): 103 % of control and 106 % of control and 112 % of control | T/C (dose: 1.56 mg/kg/injection, schedule: Q01DX009 (ip), vehicle: saline + alcohol): 108 % of control | T/C (dose: 1.59 mg/kg/injection, schedule: Q01DX009 (ip), vehicle: water): 119 % of control | T/C (dose: 3.0 mg/kg/injection, schedule: Q01DX009 (ip), vehicle: saline): 118 % of control | T/C (dose: 3.0 mg/kg/injection, schedule: Q01DX009 (ip), vehicle: water): 121 % of control | T/C (dose: 3.12 mg/kg/injection, schedule: Q01DX009 (ip), vehicle: saline + alcohol): 123 % of control | T/C (dose: 12.0 mg/kg/injection, schedule: Q01DX009 (ip), vehicle: water): 151 % of control and 163 % of control | T/C (dose: 25.0 mg/kg/injection, schedule: Q01DX009 (ip), vehicle: saline + alcohol): 175 % of control
